# Source: patent US20080076751A1, “Azetidinone Derivatives and Methods of Use Thereof” (priority 2006, published 2008)
# Where two headings read alike, the source gives them in different places.
# Experiments:
# [1] = molecular target: T1, TRPV1 (VR1) (Rattus norvegicus, UniProt O35433); test: TRPV1 screening assay (FLIPR, Fluo-4 calcium), capsaicin stimulation; format: cell-based
# T1 construct: expressed in transfected cells; host or cells: HEK293-TetOFF, expression induced by withdrawing doxycycline
# Excerpt: • 1) Cell line: HEK293-Tet^OFF-TRPV1 • 2) Media: MEM (Invitrogen) • 3) 10% Tet-FBS (Clontech #8630-1) • 4) Fungizone (Gibe #15290-018 (100X)) • 5) Penn/Strep (Gibco #15140-122 (100X)) • 6) Geneticin (Gibco #10131-027 (100X)) • 7) Hygromycin (Clontech #8057-1) • 8) Doxycycline (Clontech #8634-1) • 9) Trypsin/EDTA (Gibco #25200-056) • 10) 100 mm cell culture plates (Falcon #3003) • 11) 96-well poly-D-lysine plates (Fisher #08-774-256) • 12) Hank's Balanced Salt Solution (HBSS) (GIBCO #14025-092) • 13) HEPES Buffer (GIBCO #15630-080) • 14) 30% BSA (Research Organics #1334A) • 15) Probenecid (Sigma P-8761) • 16) Fluo-4, AM (50 μg) (Molecular Probes F-23917) • 17) Pluronic F-127 20% (Molecular Probes P-3000). • 18) capsazepine (Sigma C-191) • 19) capsaicin (Sigma M-2028) • 20) compound plates (NUNC #442587) • 21) black pipet tips 96-well FLIPR (Robbins Scientific 1043-24-0) • 22) Additional reagents available from Fisher: methanol, DMSO, NaOH Reagent Preparation: 1) Cells: HEK293-Tet^OFF-TRPV11
# • and Doxycycline 2.5 μg/mL final (from a 1000× stock in PBS) • Cells must be fed and/or split every 2-3 days (to maintain transcriptional repression with Doxycycline). • Must be split no more than 1:5 (50-75% confluency) to maintain growth and viability. • Grown on regular tissue culture plates (e.g Falcon 3003-100 mm) • Split cells via Trypsin/EDTA: incubate with trypsin at room temperature no longer than 5 minutes (HEK293 cells have a tendency to ball up if over trypsinized). • Two days prior to assay, the cells are split into 96-well plates in cell media in the absence of doxycycline at a concentration of 40,000 cells/well in a volume of 200 μL. 2) FLIPR buffer is prepared fresh:
# Add 5 mL of Probenecid Solution, prepared as follows: 710 mg of probenecid (Sigma P-8761) is solubilized in 5 mL of 1N NaOH, 5 mL of above buffer is added for final volume of 10 mL. (of which 5 mL goes back into FLIPR buffer)
# Combine 42 μL of dye mixture with 11 mL of FLIPR buffer/96-well plate.
# Stock solution of 0.1 M capsaicin is prepared in MeOH (50 mg+1.6 mL MeOH). Store 50 μL aliquots at −80° C.
# For assay: • a) Dilute stock by adding 0.8 μL into 1 mL of MeOH (final=80 uM). • b) Add 50 μL of diluted stock to 20 mL of FLIPR buffer (final=0.2 uM) • c) Agonist solution is added 150 μL/well to 96-well plate. • d) Final agonist concentration on cells will be 50 nM. […] Laser is adjusted upwards for an average signal≧10,000/well and less than 10% variability. 7) Compound addition conditions are as follows: • FLIPR setup (dual sequence parameters): • Sequence 1: • First interval 1 sec/60 counts • Second interval 6 sec/50 counts • Fluid addition=50 μL • Pipettor height 110 μL • Dispense Speed=30 μL/sec • Sequence 2: • Second interval 1 sec/60 counts • Second interval 6 sec/40 counts • Fluid addition=50 μL • Pipettor height=140 μL • Dispense Speed=50 μL/sec Data Analysis: • 1) Data from both additions is reported as Max-Min for each well
# [2] = molecular target: T2, human NPC1L1 (Homo sapiens, UniProt Q9UHC9); test: NPC1L1 binding assay (BODIPY-labeled glucuronidated ezetimibe competition), human; details: HEK-293 cells expressing human NPC1L1, 4 hours at 37° C.
# T2 construct: expressed in transfected cells; host or cells: HEK-293 (geneticin selection)
# T2 sequence (Q9UHC9 22-1359): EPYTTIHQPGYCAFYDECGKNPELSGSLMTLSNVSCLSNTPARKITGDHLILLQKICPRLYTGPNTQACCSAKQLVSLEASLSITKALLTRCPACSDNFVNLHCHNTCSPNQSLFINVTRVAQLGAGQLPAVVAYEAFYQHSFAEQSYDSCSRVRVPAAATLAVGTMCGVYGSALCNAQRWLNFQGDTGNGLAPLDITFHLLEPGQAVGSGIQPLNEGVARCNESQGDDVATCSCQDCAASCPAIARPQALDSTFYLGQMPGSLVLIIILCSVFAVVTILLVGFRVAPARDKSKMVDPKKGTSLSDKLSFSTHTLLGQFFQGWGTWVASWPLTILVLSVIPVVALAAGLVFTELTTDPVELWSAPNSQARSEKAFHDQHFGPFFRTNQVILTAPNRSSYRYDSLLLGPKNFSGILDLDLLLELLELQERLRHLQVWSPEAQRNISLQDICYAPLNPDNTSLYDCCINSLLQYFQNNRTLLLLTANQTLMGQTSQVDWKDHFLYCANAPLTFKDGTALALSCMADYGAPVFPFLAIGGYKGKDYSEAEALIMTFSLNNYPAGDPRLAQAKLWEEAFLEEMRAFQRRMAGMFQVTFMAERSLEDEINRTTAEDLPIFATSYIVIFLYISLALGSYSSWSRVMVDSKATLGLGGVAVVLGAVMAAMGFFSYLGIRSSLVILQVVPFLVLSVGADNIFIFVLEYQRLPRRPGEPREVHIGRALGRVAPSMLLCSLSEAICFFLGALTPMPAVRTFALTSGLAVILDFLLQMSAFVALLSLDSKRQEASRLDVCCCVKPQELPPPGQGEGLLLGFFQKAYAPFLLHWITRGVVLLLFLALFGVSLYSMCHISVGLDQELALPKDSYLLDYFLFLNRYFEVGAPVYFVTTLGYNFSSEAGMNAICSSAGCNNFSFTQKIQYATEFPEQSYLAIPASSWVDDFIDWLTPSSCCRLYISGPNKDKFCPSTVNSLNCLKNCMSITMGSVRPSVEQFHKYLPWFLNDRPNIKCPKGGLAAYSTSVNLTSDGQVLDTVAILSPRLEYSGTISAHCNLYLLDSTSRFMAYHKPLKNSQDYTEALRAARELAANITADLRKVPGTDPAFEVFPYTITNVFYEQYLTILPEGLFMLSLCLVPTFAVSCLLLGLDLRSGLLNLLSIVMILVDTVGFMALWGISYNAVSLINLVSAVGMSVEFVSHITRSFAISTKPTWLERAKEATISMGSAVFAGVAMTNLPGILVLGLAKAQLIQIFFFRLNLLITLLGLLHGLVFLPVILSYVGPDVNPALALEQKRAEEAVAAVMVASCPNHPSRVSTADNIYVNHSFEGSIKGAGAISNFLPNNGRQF
# Protocol: HEK-293 cells expressing human NPC1L1 were plated into 384-well black/clear plates (BD Biosciences, Bedford Mass.) for binding experiments the following day. Cell growth media (DMEM, 10% fetal calf serum, 1 mg/mL geneticin, 100 Units/mL penicillin) was aspirated. Cell growth media ([…]) containing 250 nM BODIPY-labeled glucuronidated ezetimibe was added to each well. Cell growth media ([…]) containing the indicated concentration of compound was then added to the wells. Unlabeled glucuronidated ezetimibe ([…]) was used to determine nonspecific binding. The binding reaction was allowed to proceed for 4 hours at 37° C. Subsequently the cell growth media was aspirated and the cells washed once with PBS. The remaining fluorescent labeled glucuronidated ezetimibe bound to the cells was quantified using a FlexStation plate reader (Molecular Devices, Sunnyvale Calif.) to measure fluorescence intensity. Ki values were determined from competition binding curves (n=4 for each point) using Prism and Activity Base software.
# [3] = molecular target: T3, human CaV3.2 (Homo sapiens, UniProt O95180); test: IonWorks screen for hCaV3.2 (T-type calcium current, voltage clamp); format: cell-based; details: IonWorks HT, HEK cells, 10 min incubation, pulse 10, 8-point curve; read-out: IW hCav3 2 IC50
# T3 construct: expressed in transfected cells
# Excerpt: Functional evaluation of voltage-gated ion channels can be used to determine potency and/or single concentration efficacy of the Azetidinone Derivatives of the present invention. Two different methodologies can be used to measure ion currents: the lonWorks HT (Molecular Devices, Sunnyvale, Calif.) a moderate throughput voltage clamp screening platform that utilizes 96-well compound plates and conventional whole cell patch clamp for lower throughput, higher fidelity determinations.
# HEK cells are transiently transfected and then selected for stable heterologous expression of different channel proteins of interest. Calcium channel cell lines expressed a resting potassium current, human Kir2.1, and the pore forming α-subunit of voltage-gated calcium channels. In the case of CaV2.1 cells the auxiliary subunit, β2a, is also expressed. Calcium channel lines that are used to generate the data will express either human CaV3.2, rat CaV3.2 or human CaV2.1. The human heart sodium channel, hNaV1.5, are stably expressed in CHO cells.
# Cell lines can be grown at 37° C. in humidified incubators, equilibrated with 95% air/5% CO2. CHO cells can be grown in Ham's F-12 medium. HEK cells can be grown in DMEM. All media are supplemented with 10% heat-inactivated fetal bovine serum, penicillin, streptomycin and appropriate selection antibiotics (zeocin, geneticin and/or hygromycin). Cells are passaged when 80% confluent or less.
# IonWorks Screen for hCaV3.2
# The extracellular buffer for experiments using this instrument contained the following (mM) (NaCl 125, HEPES 10, KCl 5.4, CaCl2 1.8, MgCl2 1.8, 0.2 BaCl2 pH 7.35). The lonWorks uses amphotericin to gain electrical access to the cell interior. The internal solution contained (mM concentrations): 130 K-gluconate, 20 KCl, 5 HEPES-KOH (pH 7.25), 2 CaCl2, 1 MgCl2. Amphotericin added at 5 mg in 65 mL when present (in 650 μL DMSO). All internal and external solutions for this experiment contain 1% DMSO. Cells were acutely trypsinized from a T-75 flask and resuspended in extracellular buffer at a density of 2×10^5 cells/mL.
# Experiments were performed at room temperature. Transmembrane potential was held at −100 mV for 5 seconds prior to running the voltage protocol. During this time leak currents were measured during a step to −110 mV (200 milliseconds). T-type calcium currents were activated with a 250 millisecond step to −20 mV. This depolarization step was repeated for a total of 10 pulses with an interpulse interval of 1 second. Data were excluded if the following acceptance criteria were not met: total resistance for the pre-compound scan>65 MΩ, pre-compound current>250 pA, post compound total resistance>50 MΩ.
# T-type currents were measured as the peak inward current minus the current at the end of the 250 msec step to −20 mV. After the recoding configuration was established there was a pre-compound measurement of current amplitude. Compound was added as a 3× solution containing 1% DMSO. After incubation with compound for 10 minutes currents were measured again. The current amplitude after compound addition was divided by the pre-compound current for pulse 10 to determine the fraction of current remaining after compound addition. For each compound, 8-point concentration-effect relationships were measured with ½ log serial dilutions.
# T3 sequence (O95180 whole entry): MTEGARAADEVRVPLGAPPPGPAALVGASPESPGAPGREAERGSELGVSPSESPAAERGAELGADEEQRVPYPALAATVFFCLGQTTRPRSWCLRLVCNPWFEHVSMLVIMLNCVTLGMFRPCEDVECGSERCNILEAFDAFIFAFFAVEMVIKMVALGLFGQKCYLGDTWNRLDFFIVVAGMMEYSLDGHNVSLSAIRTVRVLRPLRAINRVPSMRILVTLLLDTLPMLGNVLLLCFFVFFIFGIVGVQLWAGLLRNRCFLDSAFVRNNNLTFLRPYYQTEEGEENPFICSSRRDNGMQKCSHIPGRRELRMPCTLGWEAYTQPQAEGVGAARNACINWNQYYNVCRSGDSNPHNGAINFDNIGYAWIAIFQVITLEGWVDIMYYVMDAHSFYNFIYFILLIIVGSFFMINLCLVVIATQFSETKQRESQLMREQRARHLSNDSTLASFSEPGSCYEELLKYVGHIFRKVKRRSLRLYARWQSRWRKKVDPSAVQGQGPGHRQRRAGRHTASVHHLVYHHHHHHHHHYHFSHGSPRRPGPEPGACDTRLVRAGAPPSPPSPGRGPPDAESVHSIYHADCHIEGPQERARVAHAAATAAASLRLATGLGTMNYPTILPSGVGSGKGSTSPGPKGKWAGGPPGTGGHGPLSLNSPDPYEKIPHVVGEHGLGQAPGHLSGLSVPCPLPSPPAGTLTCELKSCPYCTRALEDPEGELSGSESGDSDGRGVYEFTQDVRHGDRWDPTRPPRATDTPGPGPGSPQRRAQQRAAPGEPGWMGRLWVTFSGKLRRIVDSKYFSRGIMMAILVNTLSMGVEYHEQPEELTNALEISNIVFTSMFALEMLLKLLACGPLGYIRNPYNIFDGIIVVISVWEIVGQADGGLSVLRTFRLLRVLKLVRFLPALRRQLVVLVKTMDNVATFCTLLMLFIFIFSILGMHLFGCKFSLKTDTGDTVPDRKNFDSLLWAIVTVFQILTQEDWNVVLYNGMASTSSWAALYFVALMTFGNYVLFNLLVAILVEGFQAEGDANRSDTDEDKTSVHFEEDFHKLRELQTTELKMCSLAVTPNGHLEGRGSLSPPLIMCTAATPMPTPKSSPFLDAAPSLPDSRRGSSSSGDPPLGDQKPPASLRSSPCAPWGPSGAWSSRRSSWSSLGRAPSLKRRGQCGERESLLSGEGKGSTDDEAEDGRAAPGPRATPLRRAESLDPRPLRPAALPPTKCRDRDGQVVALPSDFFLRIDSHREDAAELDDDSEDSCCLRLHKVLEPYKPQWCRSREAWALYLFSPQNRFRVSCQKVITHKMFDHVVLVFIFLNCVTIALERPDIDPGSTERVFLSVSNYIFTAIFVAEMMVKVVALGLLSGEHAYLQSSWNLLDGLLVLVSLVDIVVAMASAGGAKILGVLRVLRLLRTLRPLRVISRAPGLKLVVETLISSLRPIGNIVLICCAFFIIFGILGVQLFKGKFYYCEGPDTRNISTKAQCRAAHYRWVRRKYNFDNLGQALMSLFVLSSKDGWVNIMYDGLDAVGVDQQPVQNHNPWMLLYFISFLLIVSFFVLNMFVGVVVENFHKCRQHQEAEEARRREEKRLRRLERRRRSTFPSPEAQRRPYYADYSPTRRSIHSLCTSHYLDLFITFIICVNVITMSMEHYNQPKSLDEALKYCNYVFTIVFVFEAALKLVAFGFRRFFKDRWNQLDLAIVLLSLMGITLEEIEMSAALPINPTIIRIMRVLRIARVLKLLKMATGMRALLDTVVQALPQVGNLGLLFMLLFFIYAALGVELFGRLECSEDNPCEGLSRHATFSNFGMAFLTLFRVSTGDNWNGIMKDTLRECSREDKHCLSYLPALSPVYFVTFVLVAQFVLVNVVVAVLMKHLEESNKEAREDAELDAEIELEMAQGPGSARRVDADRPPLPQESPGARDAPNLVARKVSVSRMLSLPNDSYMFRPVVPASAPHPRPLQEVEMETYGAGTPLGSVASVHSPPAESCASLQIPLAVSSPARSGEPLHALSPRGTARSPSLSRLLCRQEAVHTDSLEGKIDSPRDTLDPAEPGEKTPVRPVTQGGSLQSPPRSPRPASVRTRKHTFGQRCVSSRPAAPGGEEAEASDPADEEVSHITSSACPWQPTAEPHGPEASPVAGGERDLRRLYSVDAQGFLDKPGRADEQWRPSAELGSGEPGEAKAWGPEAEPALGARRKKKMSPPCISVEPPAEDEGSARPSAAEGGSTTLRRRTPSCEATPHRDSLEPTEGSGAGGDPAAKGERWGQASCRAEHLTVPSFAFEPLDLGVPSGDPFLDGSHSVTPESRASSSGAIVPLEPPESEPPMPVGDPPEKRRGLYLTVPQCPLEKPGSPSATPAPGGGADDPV
# T1 sequence (O35433 whole entry): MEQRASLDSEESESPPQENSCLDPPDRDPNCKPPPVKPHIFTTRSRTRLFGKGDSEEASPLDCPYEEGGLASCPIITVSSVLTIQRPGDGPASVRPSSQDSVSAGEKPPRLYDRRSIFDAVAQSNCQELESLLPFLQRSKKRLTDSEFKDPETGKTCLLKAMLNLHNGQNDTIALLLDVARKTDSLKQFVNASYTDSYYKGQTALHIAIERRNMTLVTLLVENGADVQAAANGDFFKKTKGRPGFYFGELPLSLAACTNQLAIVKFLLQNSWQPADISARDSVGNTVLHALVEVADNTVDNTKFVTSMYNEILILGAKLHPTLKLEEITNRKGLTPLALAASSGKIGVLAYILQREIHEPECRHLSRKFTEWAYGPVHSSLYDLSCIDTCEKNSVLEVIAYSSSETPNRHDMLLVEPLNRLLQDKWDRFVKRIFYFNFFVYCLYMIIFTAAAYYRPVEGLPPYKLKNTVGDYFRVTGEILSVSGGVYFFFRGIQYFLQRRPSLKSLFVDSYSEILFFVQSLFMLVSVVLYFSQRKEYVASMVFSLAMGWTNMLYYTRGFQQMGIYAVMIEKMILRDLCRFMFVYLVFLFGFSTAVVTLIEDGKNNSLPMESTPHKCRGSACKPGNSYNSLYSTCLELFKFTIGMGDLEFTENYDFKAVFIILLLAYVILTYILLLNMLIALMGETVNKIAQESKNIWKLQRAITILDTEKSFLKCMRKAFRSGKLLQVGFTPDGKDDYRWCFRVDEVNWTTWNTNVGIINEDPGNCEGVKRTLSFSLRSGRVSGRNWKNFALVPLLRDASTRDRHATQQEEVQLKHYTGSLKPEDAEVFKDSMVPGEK
IC50 [3] [nM],Structure (SMILES),also measured
–,CC(C)(C)c1ccc(NC(=O)N2CCC3(CC2)C(=O)N(c2ccccn2)C3c2ccccc2)cc1 (stereo not shown),"IC50 ([1]; FLIPR, HEK293-TetOFF-TRPV1, capsaicin 50 nM final, read-out: VR1 flipr CAPSAICIN IC50): 1 nM"
–,O=C(Nc1ccccc1Cl)N1CCC2(CC1)C(=O)N(c1ccccc1)C2c1ccccc1 (stereo not shown),Ki [2]: 8640 nM
–,O=C(NCc1ccccc1Cl)N1CCC2(CC1)C(=O)N(c1ccccc1)C2c1ccccc1 (stereo not shown),Ki [2]: 17600 nM
–,"Oc1cc2c(cc1O)CN(C(=S)NCCc1ccc(Cl)cc1)CCC2 [capsazepine, reference compound]","IC50 ([1]; reference antagonist in reagent preparation, read-out: IC50 of competitive antagonist capsazepine): ~500 nM"
–,O=C(NCc1cccc(F)c1)N1CCC2(CC1)C(=O)N(c1ccccc1)C2c1ccccc1 (stereo not shown),Ki [2]: 26000 nM
2100,O=C(Nc1cc(F)cc(F)c1)N1CCC2(CC1)C(=O)N(c1cncc(F)c1)C2c1ccccn1 (stereo not shown),–
109,CC[C@H](C)[C@H](NC(=O)N1CCC2(CC1)C(=O)N(c1ccccc1S(C)(=O)=O)C2c1ccc(Cl)cc1)C(=O)OC (stereo partly shown),–
124,N#Cc1cccc(NC(=O)N2CCC3(CC2)C(=O)N(c2cccc(Cl)c2)C3c2cccnc2)c1 (stereo not shown) [drawing 634],–
182,CC[C@H](C)[C@H](NC(=O)N1CCC2(CC1)C(=O)N(c1cccc(F)c1)C2c1ccc(Cl)cc1)C(=O)NC (stereo partly shown),–
52.5,O=C(Nc1cc(F)cc(F)c1)N1CCC2(CC1)C(=O)N(c1ccc(F)c(Cl)c1)C2c1ccc(Br)cn1 (stereo not shown),–
269,O=C(NCc1ccccc1F)N1CCC2(CC1)C(=O)N(c1cccc(F)c1)C2c1ccc(Cl)cc1 (stereo not shown),–
45,CC[C@H](C)[C@H](NC(=O)N1CCC2(CC1)C(=O)N(c1cccc(F)c1)C2c1ccc(Cl)cc1)C(=O)OC(C)C (stereo partly shown),–
83,O=C(Nc1cccc(C(F)(F)F)c1)N1CCC2(CC1)C(=O)N(c1ccc(F)c(Cl)c1)C2c1ccccn1 (stereo not shown) [drawing 561],–
420,O=C(Nc1cc(F)cc(F)c1)N1CCC2(CC1)C(=O)N(c1cccc(Cl)c1)C2c1cccnc1 (stereo not shown) [drawing 636],–
390,"O=C(Nc1cc(F)cc(F)c1)N1CCC2(CC1)C(=O)N(c1cccc(F)c1)C2c1ccc(Cl)cc1 (single isomer, unassigned)",–
2170,CC(NC(=O)N1CCC2(CC1)C(=O)N(c1cccc(F)c1)C2c1ccc(Cl)cc1)c1ccccn1 (stereo not shown),–
–,O=C(NC1CCCC1)N1CCC2(CC1)C(=O)N(c1ccccc1)C2c1ccccc1 (stereo not shown),Ki [2]: 31200 nM
–,O=C(NC1CCCCC1)N1CCC2(CC1)C(=O)N(c1ccccc1)C2c1ccccc1 (stereo not shown),Ki [2]: 19700 nM
669,C[C@H](NC(=O)N1CCC2(CC1)C(=O)N(c1cccc(Cl)c1)C2c1cccnc1)c1ccc(F)cc1 (stereo partly shown) [drawing 637],–
